What all share (assay): Kinase inhibitor library screening, PrestoBlue cell viability, 1 or 10 μM, 72 h
The subject of assay [1] is A375-XP cells (Vemurafenib-resistant).
Assay [2] has as its system IGR37-GP cells (Dabrafenib-resistant).
Assay [3] concerns 501Mel-GP cells (Dabrafenib-resistant).
The next assay concerns IGR37 cells (parental).
In a further assay the test system is 501Mel cells (parental). Summed up:
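Normalised to untreated controls, viability percentages came from PrestoBlue measured on a microplate reader following 72 h incubation with drug. Each line was assayed at least twice.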

Assay [4] deals with IGR37-XP cells (Vemurafenib-resistant).
Assay [5] concerns 501Mel-XP cells (Vemurafenib-resistant).
The next assay concerns A375 cells (parental).
Assay [6] has as its system A375-GP cells (Dabrafenib-resistant).
[7] abbreviates: IGR37 Parental, 1μΜ, 72 h, in %.
Where [8] appears, read: IGR37 Parental, 10μΜ, 72 h, in %.
Setting [9] is: 501Mel Parental, 1μΜ, 72 h, in %.
Setting [10] is: 501Mel Parental, 10μΜ, 72 h, in %.

“And” between values parts separate entries of the source, which are not always exact repeats. Equal entries are not always repeated. Where two headings read alike, the source gives them in different places.

For the compound `COc1cc2c(Oc3ccc(NC(=O)C4(C(=O)Nc5ccc(F)cc5)CC4)cc3F)ccnc2cc1OCCCN1CCOCC1` [Foretinib (GSK1363089, XL880)], the “cell viability (kinase inhibitor library screening)” value was 75.2% in assay [1] (A375 XP, 1μΜ, 72 h); 0.7% in [1] (A375 XP, 10μΜ, 72 h); 91.3% in assay [2] (IGR37 GP, 1μΜ, 72 h); 0.8% in assay [2] (IGR37 GP, 10μΜ, 72 h); 64.6% in [3] (501Mel GP, 1μΜ, 72 h); -0.6% in assay [3] (501Mel GP, 10μΜ, 72 h). The “cell viability (kinase inhibitor library screening)” value was found to be 85.9% in the assay with IGR37 cells (parental) (IGR37 Parental, 1μΜ, 72 h); 0.2% with IGR37 cells (parental) (IGR37 Parental, 10μΜ, 72 h); 84.1% in the assay with 501Mel cells (parental) (501Mel Parental, 1μΜ, 72 h); 0.153% in the assay on 501Mel cells (parental) (501Mel Parental, 10μΜ, 72 h); 81.8% in [4] (IGR37 XP, 1μΜ, 72 h); 0.556% in assay [4] (IGR37 XP, 10μΜ, 72 h). The “cell viability (kinase inhibitor library screening)” value in assay [5] (501Mel XP, 1μΜ, 72 h) is 47.0%; in assay [5] (501Mel XP, 10μΜ, 72 h) it was -0.9%; in the assay on A375 cells (parental) (A375 Parental, 10μΜ, 72 h), 0.654%; with A375 cells (parental) (A375 Parental, 1μΜ, 72 h), 71.0%; in assay [6] (A375 GP, 1μΜ, 72 h), 67.2%; in assay [6] (A375 GP, 10μΜ, 72 h), 0.464%.

As for `COC(=O)c1ccc2c(c1)NC(=O)/C2=C(\Nc1ccc(N(C)C(=O)CN2CCN(C)CC2)cc1)c1ccccc1` [BIBF1120 (Vargatef)], the “cell viability (kinase inhibitor library screening)” value in [1] (A375 XP, 1μΜ, in %) is 103.7; in [1] (A375 XP, 10μΜ, in %) it was 1.7; in assay [2] (IGR37 GP, 1μΜ, in %), 97.0; in [2] (IGR37 GP, 10μΜ, in %), 1.4; in assay [3] (501Mel GP, 1μΜ, in %), 90.5; in assay [3] (501Mel GP, 10μΜ, in %), -0.1. Also, the “cell viability (kinase inhibitor library screening)” value in the assay on IGR37 cells (parental) (IGR37 Parental, 10μΜ, in %) is 0.645; with 501Mel cells (parental) (501Mel Parental, 1μΜ, in %) it was 103.8; with 501Mel cells (parental) (501Mel Parental, 10μΜ, in %), 0.6; in assay [4] (IGR37 XP, 1μΜ, in %), 100.3; in [4] (IGR37 XP, 10μΜ, in %), 1.9; in [5] (501Mel XP, 1μΜ, in %) it was 90.7. Also, the “cell viability (kinase inhibitor library screening)” value in [5] (501Mel XP, 10μΜ, in %) was -0.28; with A375 cells (parental) (A375 Parental, 1μΜ, in %), 104.6; in the assay on A375 cells (parental) (A375 Parental, 10μΜ, in %), 2.3; in assay [6] (A375 GP, 10μΜ, in %), 1.1.

By viability is commonly meant a per cent measure of how many cells are alive, often set against a control. Turning to `Cn1c(=O)c(F)c(Nc2ccc(I)cc2F)c2c(=O)n(C[C@@H](O)CO)cnc21` [TAK-733], the viability at 1 µM in assay [1] (Homo sapiens, A-375, 72 h, read-out: cell viability, A375 XP, 1μΜ) is 10.7%; in [2] (Homo sapiens, IGR-37, 72 h, read-out: cell viability, IGR37 GP, 1μΜ) it was 65.6%; in assay [3] (Homo sapiens, 72 h, read-out: cell viability, 501Mel GP, 1μΜ) it was 90.9%; in the assay on IGR37 cells (parental) (Homo sapiens, IGR-37, 72 h, read-out: cell viability, IGR37 Parental, 1μΜ), 36.5%; in the assay with 501Mel cells (parental) (Homo sapiens, 72 h, read-out: cell viability, 501Mel Parental, 1μΜ), 54%; in [4] (Homo sapiens, IGR-37, 72 h, read-out: cell viability, IGR37 XP, 1μΜ), 52.9%. The viability at 1 µM stood at 80.5% in assay [5] (Homo sapiens, 72 h, read-out: cell viability, 501Mel XP, 1μΜ); 18.6% in the assay on A375 cells (parental) (Homo sapiens, A-375, 72 h, read-out: cell viability, A375 Parental, 1μΜ); 17.6% in assay [6] (Homo sapiens, A-375, 72 h, read-out: cell viability, A375 GP, 1μΜ). For the same compound, the viability at 10 µM is 2.7% in assay [1] (Homo sapiens, A-375, 72 h, read-out: cell viability, A375 XP, 10μΜ); 58.6% in [2] (Homo sapiens, IGR-37, 72 h, read-out: cell viability, IGR37 GP, 10μΜ); 72.7% in assay [3] (Homo sapiens, 72 h, read-out: cell viability, 501Mel GP, 10μΜ); 44% in the assay with IGR37 cells (parental) (Homo sapiens, IGR-37, 72 h, read-out: cell viability, IGR37 Parental, 10μΜ); 57.9% in the assay on 501Mel cells (parental) (Homo sapiens, 72 h, read-out: cell viability, 501Mel Parental, 10μΜ); 22% in [4] (Homo sapiens, IGR-37, 72 h, read-out: cell viability, IGR37 XP, 10μΜ). The viability at 10 µM was 58.7% in assay [5] (Homo sapiens, 72 h, read-out: cell viability, 501Mel XP, 10μΜ); 18.6% in the assay on A375 cells (parental) (Homo sapiens, A-375, 72 h, read-out: cell viability, A375 Parental, 10μΜ); 16.5% in [6] (Homo sapiens, A-375, 72 h, read-out: cell viability, A375 GP, 10μΜ).

Take `CCn1nnc2c(N3CCOCC3)nc(-c3ccc(NC(=O)Nc4ccc(C(=O)N5CCN(C)CC5)cc4)cc3)nc21` [PKI-402]: the “Cell viability in kinase inhibitor library screening, A375 XP, 1μΜ” value in [1] (A375 XP, 1μΜ, 72 h) came to 20.0. The “Cell viability in kinase inhibitor library screening, A375 XP, 10μΜ” value in assay [1] (A375 XP, 10μΜ, 72 h) turned out to be 8.5. Further, the Cell viability in kinase inhibitor library screening, IGR37 GP, 10μΜ in assay [2] (IGR37 GP, 10μΜ, 72 h) was determined as 3.4%. Also, in assay [2] (IGR37 GP, 1μΜ, 72 h, in %), the “Cell viability in kinase inhibitor library screening, IGR37 GP, 1μΜ” value came to 66.1. Also, the “Cell viability in kinase inhibitor library screening, 501Mel GP, 1μΜ” value in [3] (501Mel GP, 1μΜ, 72 h, in %) was 21.4. Besides, in assay [3] (501Mel GP, 10μΜ, 72 h, in %), the “Cell viability in kinase inhibitor library screening, 501Mel GP, 10μΜ” value worked out at 0.548. Besides, the “Cell viability in kinase inhibitor library screening, IGR37 Parental, 1μΜ” value with IGR37 cells (parental) (setting [7]) stood at 35.8. Further, the “Cell viability in kinase inhibitor library screening, IGR37 Parental, 10μΜ” value in the assay with IGR37 cells (parental) (setting [8]) stood at 2.7. Besides, the “Cell viability in kinase inhibitor library screening, 501Mel Parental, 1μΜ” value with 501Mel cells (parental) (setting [9]) was determined as 15.4. For the same compound, the “Cell viability in kinase inhibitor library screening, 501Mel Parental, 10μΜ” value in the assay with 501Mel cells (parental) (setting [10]) was found to be 0.476. For the same compound, in assay [4] (IGR37 XP, 10μΜ, 72 h), the Cell viability in kinase inhibitor library screening, IGR37 XP, 10μΜ is 1.9%. For the same compound, the “Cell viability in kinase inhibitor library screening, IGR37 XP, 1μΜ” value in [4] (IGR37 XP, 1μΜ, 72 h, in %) was 25.5. Moreover, in assay [5] (501Mel XP, 1μΜ, 72 h, in %), the “Cell viability in kinase inhibitor library screening, 501Mel XP, 1μΜ” value was determined as 15.3. In addition, in [5] (501Mel XP, 10μΜ, 72 h, in %), the “Cell viability in kinase inhibitor library screening, 501Mel XP, 10μΜ” value was -0.1. Further, the “Cell viability in kinase inhibitor library screening, A375 Parental, 10μΜ” value with A375 cells (parental) (A375 Parental, 10μΜ, 72 h) came to 12.7. Moreover, the “Cell viability in kinase inhibitor library screening, A375 Parental, 1μΜ” value with A375 cells (parental) (A375 Parental, 1μΜ, 72 h) worked out at 21.3. In [6] (A375 GP, 1μΜ, 72 h), the “Cell viability in kinase inhibitor library screening, A375 GP, 1μΜ” value came to 23.7. Further, in assay [6] (A375 GP, 10μΜ, 72 h), the “Cell viability in kinase inhibitor library screening, A375 GP, 10μΜ” value came out at 9.7.

As to `Oc1ccc(-c2nc(-c3ccncc3)c(-c3ccc(F)cc3)[nH]2)cc1` [SB 202190], the “Cell viability in kinase inhibitor library screening, A375 XP, 10μΜ” value in assay [1] (A375 XP, 10μΜ, 72 h) stood at 98.7. For the same compound, the Cell viability in kinase inhibitor library screening, IGR37 GP, 10μΜ in assay [2] (IGR37 GP, 10μΜ, 72 h) worked out at 85.3%. For the same compound, in [2] (IGR37 GP, 1μΜ, 72 h, in %), the “Cell viability in kinase inhibitor library screening, IGR37 GP, 1μΜ” value amounted to 104.9. Also, the “Cell viability in kinase inhibitor library screening, 501Mel GP, 1μΜ” value in assay [3] (501Mel GP, 1μΜ, 72 h, in %) worked out at 108.3. Further, the “Cell viability in kinase inhibitor library screening, 501Mel GP, 10μΜ” value in assay [3] (501Mel GP, 10μΜ, 72 h, in %) was 90.0. In addition, the “Cell viability in kinase inhibitor library screening, IGR37 Parental, 1μΜ” value in the assay with IGR37 cells (parental) (setting [7]) is 118.8. For the same compound, the “Cell viability in kinase inhibitor library screening, IGR37 Parental, 10μΜ” value in the assay with IGR37 cells (parental) (setting [8]) is 83.2. Further, the “Cell viability in kinase inhibitor library screening, 501Mel Parental, 1μΜ” value with 501Mel cells (parental) (setting [9]) amounted to 105.7. The “Cell viability in kinase inhibitor library screening, 501Mel Parental, 10μΜ” value with 501Mel cells (parental) (setting [10]) is listed as 89.1. Also, in [4] (IGR37 XP, 10μΜ, 72 h), the Cell viability in kinase inhibitor library screening, IGR37 XP, 10μΜ amounted to 56.3%. Further, in assay [4] (IGR37 XP, 1μΜ, 72 h, in %), the “Cell viability in kinase inhibitor library screening, IGR37 XP, 1μΜ” value was determined as 103.1. Besides, the “Cell viability in kinase inhibitor library screening, 501Mel XP, 1μΜ” value in assay [5] (501Mel XP, 1μΜ, 72 h, in %) was determined as 98.4. Further, the “Cell viability in kinase inhibitor library screening, 501Mel XP, 10μΜ” value in assay [5] (501Mel XP, 10μΜ, 72 h, in %) was 74.6. Besides, in the assay on A375 cells (parental) (A375 Parental, 10μΜ, 72 h), the “Cell viability in kinase inhibitor library screening, A375 Parental, 10μΜ” value was 64.6. For the same compound, in the assay with A375 cells (parental) (A375 Parental, 1μΜ, 72 h), the “Cell viability in kinase inhibitor library screening, A375 Parental, 1μΜ” value is listed as 114.0. Moreover, in assay [6] (A375 GP, 1μΜ, 72 h), the “Cell viability in kinase inhibitor library screening, A375 GP, 1μΜ” value amounted to 105.4. In addition, the “Cell viability in kinase inhibitor library screening, A375 GP, 10μΜ” value in assay [6] (A375 GP, 10μΜ, 72 h) amounted to 98.4.

`CC[C@H](CO)Nc1nc(NCc2ccccc2)c2ncn(C(C)C)c2n1` [Roscovitine (Seliciclib, CYC202)]: the “cell viability (kinase inhibitor library screening)” value in [1] is 109.6% and 86.5%; in assay [2], 93.8% and 90.7%; in [3] it was 85.2%; with IGR37 cells (parental), 85.4% and 104.3%; in the assay on 501Mel cells (parental), 95.0% and 93.4%; in [4], 96.5% and 59.2%. Moreover, the “cell viability (kinase inhibitor library screening)” value in assay [5] was 93.6% and 61.7%; in the assay on A375 cells (parental), 90.5%; in assay [6], 109.1% and 86.5%.

For the origin of these results see publication PMC6364417, “Kinase inhibitor library screening identifies synergistic drug combinations effective in sensitive and resistant melanoma cells” (Journal of Experimental & Clinical Cancer Research : CR, 2019).
